Laboratory results published in patent US6573300B2, “Hydroxyurea treatment for spinal muscular atrophy” (China Medical College Hospital, priority 2001, dated 2003).

How the values were obtained:
SMA-like mice = experiment: Treatment of types 2 and 3 SMA-like mice (hSMN2 Smn-/-) via drinking water; assay type: in vivo, mouse
Description: To generate hSMN2 Smn^−/− mice, hSMN2 Smn^+/− mice were crossed to Smn^+/− mice. Progeny lacking the murine SMN locus were identified by genotyping. The presence of the hSMN2 transgene was also confirmed.
The effect of hydroxyurea on the symptoms of SMA-like mice were investigated. Hydroxyurea was administered to ten SMA-like mice with type 2 symptoms and ten SMA-like mice with type 3 symptoms. These mice were identified at birth by genotype and phenotype. Hydroxyurea was administered to the SMA-like mice as 1 mg/ml to 2 mg/ml solution available ad libitum in their drinking water. The amount of hydroxyurea taken by SMA-like mice was estimated to be approximate 5-10 mg/day. The survival time of hydroxyurea-treated type 2 SMA-like mice was longer, about 4 to 5 days longer on average, than untreated mice.
The effect of hydroxyurea administration on the tail phenotype of SMA-like mice was also monitored. The tails of untreated types 2 and 3 SMA-like mice have decreased diameter of muscle fibers, atrophy of muscle bundles, group atrophy and subcutaneous edema (Hsieh-Li et al. (2000) supra).

human SMA patients = experiment: Treatment of human SMA patients, oral; assay type: in vivo
[1] = absorbed from the gastrointestinal tract; cited from earlier work
[2] = system: exon 7-containing SMN protein; experiment: Western-blot analysis (H2 and H7 antibodies) of SMN protein in SMA lymphoid cell lines; assay type: cell-based, human
Source text: Western-blot analysis. Rabbits were immunized with synthetic peptides containing either human SMN amino acids 279-288 from exon 7 or amino acids 72-84 from exon 2. Specific antibodies (H7 and H2 respectively) were purified from rabbit crude sera with an EAH-sepharose 4B column (Pharmacia) according to the manufacturer's instructions.
Protein samples, prepared from treated and untreated SMA lymphoid cells, were loaded on a 5% polyacrylamide stacking gel above a 12% separating gel, and the gel was run with a discontinuous buffer using Laemmli's method. After electrophoresis, proteins were transferred electrophoretically to polyvinyl difluoride membranes (Millipore Corp., Marlborough, Mass., USA). After the transfer, the membranes were blocked in TBST (50 mM Tris.HCl, pH 7.5, 150 mM NaCl, 0.05% Tween 20) containing 4% BSA (bovine serum albumin) for 2 hours at room temperature. Blots were incubated with a 1:800 dilution of anti-SMN exon 2 (H2) or anti-SMN exon 7 (H7) antibody in TBST for 2 hours at room temperature. […] The secondary antibody was detected with a 1.5% solution of 5-bromo-4-chloro-3-indoyl phosphate and 3% nitro blue tetrazolium in a developing buffer (100 mM NaCl, 5 mM MgCl2, 100 mM Tris.HCl, pH 9.5).

Question: Which results are given for `NC(=O)NO` [hydroxyurea]?
Answer: tail phenotype (SMA-like mice; most of types 2 and 3 SMA-like mice, after treatment): nearly normal phenotype; frequency of chronic necrosis originating at the tip of the tail (SMA-like mice; treated SMA-like mice, 50% for untreated): 2%; exon 7-containing SMN protein levels in multiple tissues, including spinal cord motor neurons (SMA-like mice; western blot and immunohistochemical studies, treated SMA-like mice): elevated; full-length SMN mRNA transcript in peripheral mononuclear cells (human SMA patients; SMA patients with SMN1 deletion, oral 15 to 25 mg/kg/day): elevated; walking gait (human SMA patients; one type II patient, improved to a type III phenotype): improved; clinical symptoms of all three patients (human SMA patients; oral 15 to 25 mg/kg/day): improved; muscle strength (human SMA patients; other type II patient): improved muscle strength; respirator dependence (human SMA patients; type I patient, on respirator before treatment): respirator free; time to enter the serum after ingestion [1]: ≤ 2 h; intact SMN protein in cytosolic and nuclear fractions ([2]; after 3 hours stimulation with 5 ng/ml to 500 μg/ml): increase; levels of exon 7-containing SMN protein ([2]; lymphoid cell lines from different types of SMA patients, varying amounts, vs untreated controls): increase
